What was measured:
Androgen receptor = biological target: T1, Androgen receptor (Homo sapiens, UniProt P10275); test: biochemical
T1 sequence (P10275 whole entry): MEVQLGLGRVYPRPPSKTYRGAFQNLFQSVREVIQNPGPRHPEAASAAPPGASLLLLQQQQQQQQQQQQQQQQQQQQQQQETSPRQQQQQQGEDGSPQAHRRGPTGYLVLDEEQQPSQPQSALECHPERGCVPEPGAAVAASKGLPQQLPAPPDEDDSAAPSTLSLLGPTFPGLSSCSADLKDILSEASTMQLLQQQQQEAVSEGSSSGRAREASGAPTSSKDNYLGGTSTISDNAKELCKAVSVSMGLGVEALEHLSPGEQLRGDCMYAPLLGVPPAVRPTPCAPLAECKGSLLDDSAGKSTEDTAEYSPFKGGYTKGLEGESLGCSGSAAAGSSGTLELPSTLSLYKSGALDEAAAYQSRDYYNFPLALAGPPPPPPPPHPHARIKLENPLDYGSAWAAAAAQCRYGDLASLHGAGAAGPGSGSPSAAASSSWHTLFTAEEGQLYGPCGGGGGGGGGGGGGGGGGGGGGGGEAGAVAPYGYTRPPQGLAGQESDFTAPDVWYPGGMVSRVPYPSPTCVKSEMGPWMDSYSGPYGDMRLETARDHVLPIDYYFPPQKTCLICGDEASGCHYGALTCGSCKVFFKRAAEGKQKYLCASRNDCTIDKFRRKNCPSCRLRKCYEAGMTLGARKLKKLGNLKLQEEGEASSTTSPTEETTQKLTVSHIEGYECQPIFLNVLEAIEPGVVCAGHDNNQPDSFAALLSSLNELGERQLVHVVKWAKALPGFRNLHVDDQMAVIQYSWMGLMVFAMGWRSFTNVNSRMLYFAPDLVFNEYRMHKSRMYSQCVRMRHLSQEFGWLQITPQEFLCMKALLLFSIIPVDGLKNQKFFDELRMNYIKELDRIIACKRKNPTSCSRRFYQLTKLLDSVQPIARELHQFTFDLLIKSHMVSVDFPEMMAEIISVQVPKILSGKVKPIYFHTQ
Description: Displacement of [3H]testosterone from androgen receptor (unknown origin) expressed in 293 cells after 16 hrs by scintillation counting

Progesterone receptor = biological target: T2, Progesterone receptor (Homo sapiens, UniProt P06401); test: Displacement of [[3H]-Progesterone from progesterone receptor (unknown origin) expressed in 293 cells after 16 hrs by scintillation counting; assay type: cell-based
T2 sequence (P06401 whole entry): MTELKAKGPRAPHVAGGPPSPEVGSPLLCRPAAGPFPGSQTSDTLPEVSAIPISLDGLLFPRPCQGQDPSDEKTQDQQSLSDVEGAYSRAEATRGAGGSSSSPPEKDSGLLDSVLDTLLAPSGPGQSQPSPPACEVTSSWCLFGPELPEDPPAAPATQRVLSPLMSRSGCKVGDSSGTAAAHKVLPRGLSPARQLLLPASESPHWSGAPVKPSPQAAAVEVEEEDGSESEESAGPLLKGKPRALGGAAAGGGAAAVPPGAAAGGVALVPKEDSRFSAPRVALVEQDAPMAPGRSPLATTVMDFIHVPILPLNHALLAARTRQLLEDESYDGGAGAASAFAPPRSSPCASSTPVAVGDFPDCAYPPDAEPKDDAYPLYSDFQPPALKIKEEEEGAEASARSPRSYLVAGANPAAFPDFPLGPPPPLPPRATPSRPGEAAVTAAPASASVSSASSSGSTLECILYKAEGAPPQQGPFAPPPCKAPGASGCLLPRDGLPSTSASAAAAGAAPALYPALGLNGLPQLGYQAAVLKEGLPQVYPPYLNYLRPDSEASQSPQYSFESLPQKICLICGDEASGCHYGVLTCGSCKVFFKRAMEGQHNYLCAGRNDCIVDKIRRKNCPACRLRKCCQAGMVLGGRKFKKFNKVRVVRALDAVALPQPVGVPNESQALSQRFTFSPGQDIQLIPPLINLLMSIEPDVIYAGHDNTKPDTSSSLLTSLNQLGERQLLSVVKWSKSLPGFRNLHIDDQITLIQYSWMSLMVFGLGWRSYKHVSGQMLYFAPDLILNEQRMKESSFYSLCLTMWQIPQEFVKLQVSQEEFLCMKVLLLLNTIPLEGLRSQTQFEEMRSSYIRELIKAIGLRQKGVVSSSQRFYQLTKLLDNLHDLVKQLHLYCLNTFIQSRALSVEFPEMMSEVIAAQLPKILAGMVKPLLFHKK

[1] = biological target: T3, Mineralocorticoid receptor (Homo sapiens, UniProt P08235); test: biochemical
T3 sequence (P08235 whole entry): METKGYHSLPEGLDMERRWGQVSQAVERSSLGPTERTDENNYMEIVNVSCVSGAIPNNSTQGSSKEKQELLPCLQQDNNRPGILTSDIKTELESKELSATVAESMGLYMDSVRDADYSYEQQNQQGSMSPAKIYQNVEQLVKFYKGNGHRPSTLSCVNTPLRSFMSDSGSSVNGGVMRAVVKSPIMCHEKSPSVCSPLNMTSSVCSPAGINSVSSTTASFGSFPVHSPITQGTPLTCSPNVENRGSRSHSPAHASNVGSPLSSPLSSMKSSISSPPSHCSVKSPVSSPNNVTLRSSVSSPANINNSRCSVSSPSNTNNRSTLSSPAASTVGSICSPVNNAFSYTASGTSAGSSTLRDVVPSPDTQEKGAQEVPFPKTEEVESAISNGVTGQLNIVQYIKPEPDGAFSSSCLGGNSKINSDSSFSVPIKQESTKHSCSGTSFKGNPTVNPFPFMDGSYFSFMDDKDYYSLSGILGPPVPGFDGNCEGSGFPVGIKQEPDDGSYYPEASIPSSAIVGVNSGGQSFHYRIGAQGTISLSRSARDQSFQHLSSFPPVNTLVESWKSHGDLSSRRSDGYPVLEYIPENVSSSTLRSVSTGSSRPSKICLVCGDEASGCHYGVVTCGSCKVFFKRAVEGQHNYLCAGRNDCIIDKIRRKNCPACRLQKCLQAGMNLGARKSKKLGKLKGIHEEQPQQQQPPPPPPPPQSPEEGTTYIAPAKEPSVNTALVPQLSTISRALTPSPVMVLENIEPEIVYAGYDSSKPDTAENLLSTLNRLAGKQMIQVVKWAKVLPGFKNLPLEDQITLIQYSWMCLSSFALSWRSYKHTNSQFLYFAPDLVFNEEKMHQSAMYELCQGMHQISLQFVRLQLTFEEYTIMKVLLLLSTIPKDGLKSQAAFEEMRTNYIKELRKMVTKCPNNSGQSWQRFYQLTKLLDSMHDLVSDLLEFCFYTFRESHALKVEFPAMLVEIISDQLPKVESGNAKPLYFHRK
Description: Displacement of [3H]aldosterone from human mineralocorticoid receptor expressed in 293 cells after 16 hrs by scintillation counting

Glucocorticoid receptor = Glucocorticoid receptor (Homo sapiens, UniProt P04150); test: biochemical
Description: Displacement of [3H]-Dexamethasone from glucocorticoid receptor (unknown origin) expressed in 293 cells after 16 hrs by scintillation counting

[2] = biological target: T3, Mineralocorticoid receptor
Description: Antagonist activity at human mineralocorticoid receptor expressed in COS1 cells after 1 day by luciferase reporter gene assay

[3] = Lipophilicity, log D of the compound at pH 7.4 by HPLC analysis; assay type: physicochemical; conditions: buffer
[4] = Metabolic stability in rat hepatic microsomes at 1 umol/L pre-incubated fro 5 mins at 37 degC before addition of NADPH-generating system by UV detection based HPLC method; assay type: ADME; conditions: liver microsomes, read-out: CLH
Rattus norvegicus [5] = test: Toxicity in DOCA-salt hypertensive Wistar rat model assessed as change in seminal vesicle weight at 100 mg/kg, po qd for 18 days measured 24 hrs post 7th and 14th last dose […]; assay type: organism-based; set-up: dose 100 mg/kg, route oral; conditions: in vivo
Rattus norvegicus [6] = test: Toxicity in DOCA-salt hypertensive Wistar rat model assessed as change in heart rate at 100 mg/kg, po qd for 18 days measured 24 hrs post 7th and 14th last dose by tail-cuff method; assay type: organism-based; set-up: dose 100 mg/kg, route oral; conditions: in vivo

Chain of Glucocorticoid receptor (P04150 whole entry, looked up): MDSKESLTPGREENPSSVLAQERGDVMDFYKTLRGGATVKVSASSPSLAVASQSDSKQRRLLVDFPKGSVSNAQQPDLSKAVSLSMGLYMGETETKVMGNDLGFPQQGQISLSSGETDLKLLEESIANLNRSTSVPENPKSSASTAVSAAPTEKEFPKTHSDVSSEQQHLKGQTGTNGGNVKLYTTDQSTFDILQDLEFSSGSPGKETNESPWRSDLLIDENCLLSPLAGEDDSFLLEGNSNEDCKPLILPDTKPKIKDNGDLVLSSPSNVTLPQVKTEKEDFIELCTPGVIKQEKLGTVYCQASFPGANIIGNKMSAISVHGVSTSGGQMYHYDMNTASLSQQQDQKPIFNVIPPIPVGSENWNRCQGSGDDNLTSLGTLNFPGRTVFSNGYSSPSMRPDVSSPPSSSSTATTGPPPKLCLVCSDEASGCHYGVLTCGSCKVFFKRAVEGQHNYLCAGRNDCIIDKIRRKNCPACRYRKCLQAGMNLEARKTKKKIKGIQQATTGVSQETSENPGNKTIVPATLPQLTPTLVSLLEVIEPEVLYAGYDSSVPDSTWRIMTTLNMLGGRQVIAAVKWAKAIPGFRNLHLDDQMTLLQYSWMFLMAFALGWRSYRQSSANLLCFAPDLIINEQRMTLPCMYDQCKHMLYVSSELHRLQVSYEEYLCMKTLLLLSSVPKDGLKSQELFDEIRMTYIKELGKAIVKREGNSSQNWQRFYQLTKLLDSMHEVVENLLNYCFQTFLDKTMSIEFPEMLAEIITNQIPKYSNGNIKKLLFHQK

| SMILES | IC50 (Androgen receptor) [µM] | IC50 (Progesterone receptor) [µM] | IC50 [1] [nM] | IC50 (Glucocorticoid receptor) [nM] | IC50 [2] [nM] | logD [3] | microsomal CLint at 1 µM [4] [µL/min/mg] | Activity (Rattus norvegicus [5]) | Activity (Rattus norvegicus [6]) |
| --- | --- | --- | --- | --- | --- | --- | --- | --- | --- |
| Cc1cc(C2=C(c3ccc(F)cc3)C(=O)NC2C)cc2c1OCC(=O)N2 (stereo unspecified) | > 10 | > 10 |  |  |  |  |  |  |  |
| Cc1[nH]nc(-c2ccc3c(c2)NC(=O)CO3)c1-c1ccc(F)cc1 | > 10 | 1.6 | 3700 | > 10000 |  |  |  |  |  |
| Cc1onc(-c2ccc3c(c2)NC(=O)CO3)c1-c1ccc(F)cc1 | > 10 | > 10 | 710 | > 10000 | 1400 |  |  |  |  |
| Cn1ncc(-c2ccc3c(c2)NC(=O)CO3)c1-c1ccc(F)cc1 | > 10 | > 10 | 290 | > 10000 | 170 |  |  |  |  |
| Cc1nn(C)c(-c2ccc(F)cc2)c1-c1ccc2c(c1)NC(=O)CO2 | > 10 | 9.8 | 110 | 3200 | 160 | 2.51 |  |  |  |
| Cc1nn(C)c(-c2ccc(F)cc2F)c1-c1ccc2c(c1)NC(=O)CO2 | > 10 | 9.3 | 190 | 2300 | 600 |  |  |  |  |
| Cc1cc(-c2c(C)nn(C)c2-c2ccc(F)cc2)cc2c1OCC(=O)N2 | > 10 | > 10 | 150 | 2500 | 350 |  |  |  |  |
| CCn1nc(C)c(-c2ccc3c(c2)NC(=O)CO3)c1-c1ccc(F)cc1 | > 10 | > 10 | 510 | 5600 | 950 |  |  |  |  |
| CCCn1nc(C)c(-c2ccc3c(c2)NC(=O)CO3)c1-c1ccc(F)cc1 | > 10 | 5.7 | 81 | 1600 | 180 |  |  |  |  |
| Cc1nn(Cc2ccccc2)c(-c2ccc(F)cc2)c1-c1ccc2c(c1)NC(=O)CO2 | 5.6 | 2 | 100 | 630 | 64 |  |  |  |  |
| Cc1nn(-c2ccccc2)c(-c2ccc(F)cc2)c1-c1ccc2c(c1)NC(=O)CO2 |  |  | > 10000 |  |  |  |  |  |  |
| Cc1nn(CCCO)c(-c2ccc(F)cc2)c1-c1ccc2c(c1)NC(=O)CO2 | > 10 | > 10 | 440 | > 10000 | 680 | 1.99 |  |  |  |
| Cc1nn(CCCCO)c(-c2ccc(F)cc2)c1-c1ccc2c(c1)NC(=O)CO2 | > 10 | > 10 | 75 | 5400 | 130 | 2.16 |  |  |  |
| Cc1nn(Cc2ccccn2)c(-c2ccc(F)cc2)c1-c1ccc2c(c1)NC(=O)CO2 | > 10 | > 10 | 2800 | > 10000 | 990 | 2.45 |  |  |  |
| Cc1nn(Cc2cccnc2)c(-c2ccc(F)cc2)c1-c1ccc2c(c1)NC(=O)CO2 | > 10 | > 10 | 36 | 1700 | 36 | 2.22 | > 200 |  |  |
| Cc1nn(Cc2ccncc2)c(-c2ccc(F)cc2)c1-c1ccc2c(c1)NC(=O)CO2 | > 10 | > 10 | 520 | > 10000 | 430 | 2.2 |  |  |  |
| CCCCn1nc(C)c(-c2ccc3c(c2)NC(=O)CO3)c1-c1ccc(F)cc1 | 3.6 | 4 | 22 | 1400 | 45 |  |  |  |  |
| Cc1nn(CC(C)C)c(-c2ccc(F)cc2)c1-c1ccc2c(c1)NC(=O)CO2 | 3.7 | 4.3 | 60 | 390 | 49 |  |  |  |  |
| Cc1nn(CCCC(F)(F)F)c(-c2ccc(F)cc2)c1-c1ccc2c(c1)NC(=O)CO2 | > 10 | 6.8 | 8.4 | 1100 | 33 |  |  |  |  |
| CC(=O)NCCn1nc(C)c(-c2ccc3c(c2)NC(=O)CO3)c1-c1ccc(F)cc1 |  |  | > 10000 |  |  |  |  |  |  |
| Cc1nn(CCNS(C)(=O)=O)c(-c2ccc(F)cc2)c1-c1ccc2c(c1)NC(=O)CO2 | > 10 | > 10 | 250 | > 10000 | 2000 | 1.7 |  |  |  |
| Cc1nn(CCC#N)c(-c2ccc(F)cc2)c1-c1ccc2c(c1)NC(=O)CO2 | > 10 | 5.7 | 530 | 4600 | 490 | 1.89 |  |  |  |
| Cc1nn(CC(F)(F)CCO)c(-c2ccc(F)cc2)c1-c1ccc2c(c1)NC(=O)CO2 | > 10 | > 10 | 38 | 1300 | 540 | 2.11 |  |  |  |
| Cc1nn(CCC(C)(F)F)c(-c2ccc(F)cc2)c1-c1ccc2c(c1)NC(=O)CO2 | 9.2 | 4 | 10 | 370 | 18 |  |  |  |  |
| Cc1nn(CCC(F)(F)CO)c(-c2ccc(F)cc2)c1-c1ccc2c(c1)NC(=O)CO2 | > 10 | > 10 | 95 | 2500 | 180 | 2.34 |  |  |  |
| CC(=O)S[C@@H]1CC2=CC(=O)CC[C@]2(C)[C@H]2CC[C@@]3(C)[C@@H](CC[C@@]34CCC(=O)O4)[C@H]12 [SPIRONOLACTONE] |  |  |  |  |  |  |  | Toxic | Non-toxic |
